Counter-ions that a name gives are not always drawn.

T1 sequence (Q923Y8 whole entry): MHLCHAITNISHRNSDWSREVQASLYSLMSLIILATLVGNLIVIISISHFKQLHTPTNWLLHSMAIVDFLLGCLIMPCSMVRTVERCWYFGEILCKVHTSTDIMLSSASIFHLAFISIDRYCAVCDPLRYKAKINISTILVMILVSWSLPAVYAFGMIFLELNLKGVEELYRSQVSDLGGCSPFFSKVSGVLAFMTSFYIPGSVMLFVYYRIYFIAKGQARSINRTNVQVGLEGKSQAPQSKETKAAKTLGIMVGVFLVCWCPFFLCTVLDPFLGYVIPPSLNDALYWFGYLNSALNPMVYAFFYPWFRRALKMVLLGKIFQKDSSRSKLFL

The first experiment addresses T1, mouse TAR-1 (Mus musculus, UniProt Q923Y8).
T1 construct: expressed in transfected cells
Briefly: cAMP assay, activation of mouse TAR-1. Type of experiment: cell-based.
Settings: not given
The procedure: cAMP Assay. HEK293 cells were harvested in Krebs-Ringer-HEPES buffer (KRH) and preincubated in KRH with 200 μM 3-isobutyl-methylxanthine. For drug treatments cells were incubated in KRH with 100 μM 3-isobutyl-1-methylxanthine with the test compound (or 10 μM forskolin) for 1 hour at 37° C. The cells were then boiled for 20 minutes after adding an equal volume of 0.5 mM sodium acetate buffer, centrifuged to remove cell debris, and the resulting extract was analyzed for cAMP content using competitive binding of [^3H]cAMP to a cAMP binding protein (Diagnostic Products Corp., Los Angeles, Calif.). Data were normalized according to protein content as determined using the Bradford reagent (Bio-Rad). Concentration-response curves were plotted and EC50 values calculated with Prism software (GraphPad, San Diego, Calif.).
Molecule `NCCc1ccc(Oc2ccccc2)cc1` [Compound 31, O-phenyl-tyramine Hydrochloride] gave an EC50 not above 500 nM. For `NCCc1ccc(OCc2ccccc2)cc1` [Compound 32, O-benzyl-tyramine hydrochloride], the EC50 was not above 500 nM.

For `NCCc1ccc(OCc2ccccc2)c(I)c1` [Compound 39, O-benzyl-3-iodotyramine Hydrochloride], the EC50 is not above 500 nM. In turn, `NCCc1ccc(OCCc2ccccc2)cc1` [Compound 40, O-(2-phenyl)ethyl Tyramine Hydrochloride] registered an EC50 not above 500 nM. Consider `NCCc1ccc(OCc2ccc(F)cc2)cc1` [Compound 41, O-(p-fluoro)benzyl Tyramine Hydrochloride], for which the EC50 is not above 500 nM. In the case of `COc1cccc(COc2ccc(CCN)cc2)c1` [Compound 42, O-(m-methoxy)benzyl Tyramine Hydrochloride], the EC50 is not above 500 nM.

As for `NCCc1ccc(OCc2ccc(C(F)(F)F)cc2)cc1` [Compound 43, O-(p-trifluoromethyl)benzyl Tyramine Hydrochloride], the EC50 is not above 500 nM. Regarding `Cc1cc(C)cc(COc2ccc(CCN)cc2)c1` [Compound 44, O-(m,m-dimethyl)benzyl Tyramine Hydrochloride], the EC50 was not above 500 nM. Consider `CNCCc1ccc(OCc2ccccc2)cc1` [Compound 51, N-methyl-O-benzyl-tyramine Hydrochloride], for which the EC50 was not above 500 nM. Same read-out and setting: the value for `CNCCc1ccc(OCc2ccccc2)c(I)c1` [Compound 52, N-methyl-O-benzyl-3-iodotyramine Hydrochloride] was not above 500 nM; that for `CCNCCc1ccc(OCc2ccccc2)cc1` [Compound 53, N-ethyl-O-benzyl Tyramine Hydrochloride] was not below 1000 nM.

In the case of `CCCNCCc1ccc(OCc2ccccc2)cc1` [Compound 54, N-propyl-O-benzyl Tyramine Hydrochloride], the EC50 is not below 1000 nM.

For `CCCCNCCc1ccc(OCc2ccccc2)cc1` [Compound 55, N-butyl-O-benzyl Tyramine Hydrochloride], the EC50 was not below 1000 nM.

Consider `c1ccc(CNCCc2ccc(OCc3ccccc3)cc2)cc1` [Compound 56, N-benzyl-O-benzyl Tyramine Hydrochloride], for which the 50% effective concentration (EC50) was not below 1000 nM. `NCCc1ccc(OCCCc2ccccc2)cc1` [Compound 69, 4-(3′-Phenyl)propyloxy Tyramine Hydrochloride] returned a concentration for a half-maximal effect (EC50) not above 500 nM. Molecule `NCCc1ccc(OCCCCc2ccccc2)cc1` [Compound 70, 4-(3′-Phenyl)butyloxy Tyramine Hydrochloride] yielded an EC50 not above 500 nM.

Staying with this experiment, now noted: unit inferred; read-out: EC50, activation of the mouse TAR-1, further panel of thyronamine analogs.
Consider `CN(C)CCc1ccc(OCc2ccccc2)cc1` [Compound 74, N,N-Dimethyl-4-benzyloxy Tyramine Hydrochloride], for which the EC50 was not below 1000 nM.

As to `CC(C)(C)OC(=O)NCC(C)(C)c1ccc(Oc2ccccc2)cc1` [Compound 82, N-t-Boc-4-Phenoxy-β,β-dimethyl Tyramine], the EC50 was not below 1000 nM. Still for that read-out and setting: the value for `CC(C)(CN)c1ccc(Oc2ccccc2)cc1` [Compound 83, 4-Phenoxy-β,β-dimethyl Tyramine Hydrochloride] was not below 1000 nM; that for `COc1cc(Oc2ccccc2)ccc1C(=O)NCCN` [Compound 113, 2-(2-methoxy-4-phenoxybenzamido)-ethylamine Hydrochloride] was not below 1000 nM; that for `COc1cc(Oc2ccccc2)ccc1C(=O)NCCCN` [Compound 114, 3-(2-methoxy-4-phenoxybenzamido)-propylamine Hydrochloride] was not below 1000 nM. `COc1cc(Oc2ccccc2)ccc1C(=O)NCCCCN` [Compound 115, 4-(2-methoxy-4-phenoxybenzamido)-butylaniine Hydrochloride]: the EC50 is not below 1000 nM. As to `CN(C)CCCNC(=O)c1ccc(Oc2ccccc2)cc1` [Compound 118, N,N-dimethyl 3-(4-phenoxybenzamido)-propylamine Hydrochloride], the EC50 was not below 1000 nM.

Source of the values: patent US7355079B2, “Thyronamine derivatives and analogs and methods of use thereof” (The Regents of the University of California, priority 2003, dated 2008).
